Measured values: PMC4532424, “The Novel Cyclophilin Inhibitor CPI-431-32 Concurrently Blocks HCV and HIV-1 Infections via a Similar Mechanism of Action” (PLoS ONE, 2015)
Non-standard residues stand in square brackets, D forms with d. Residues, ends and D or L forms follow the SMILES beside them. NMeThr(4R-Me,4-(CH2)6NHAc) = CN[C@H](C(=O)O)[C@H](O)[C@H](C)CCCCCCNC(C)=O; NMeL = CN[C@@H](CC(C)C)C(=O)O; NMeV = CN[C@H](C(=O)O)C(C)C; dNMeA = CN[C@H](C)C(=O)O; Abu = CC[C@H](N)C(=O)O

Legend:
[1] = system: human T cells; conditions: cited from earlier work
[2] = system: HIV-1 JR-CSF; assay: Established HIV-1 infection of CD4+ T-lymphocytes, single versus daily drug addition, p24 ELISA; type: cell-based; conditions: 2 μM three days post-infection then daily 0.5 μM; after fifteen days
Experimental: CD4+ T-lymphocytes (A) and Huh7.5.1 cells (B) (0.5 x 10^6 cells) (triplicates) were exposed to HIV-1 JR-CSF and HCV JFH-1. Drugs (2 μM) were added 3 h pre-viral exposure (top panels) or 3 days post-viral exposure (bottom panels). Viral replications were monitored by HIV-1 p24 and HCV core ELISAs. C. CD4+ T-lymphocytes (0.5 x 10^6 cells) (triplicates) were exposed to HIV-1 JR-CSF. Drugs were initially added 3 days post-viral exposure (2 μM) and then daily (0.5 μM). Viral replications were monitored by HIV-1 p24 and HCV core ELISAs. […] D. Model for the HIV-1/HCV co-culture system.

[3] = system: HIV-1 NL4.3; assay: HIV-1 nuclear import analysis, integrase Western blot of cytoplasmic and nuclear extracts; type: cell-based; conditions: 2 μM; 6 h post-infection; nuclear extract
Experimental: CD4+ HeLa cells (10^7 cells) were infected with NL4.3 (1 μg of p24) derived from 293T-transfected cells in the presence or absence of CPI-431-32 (2 μM). Six hours post-infection, cells were fractionated using the Thermo Scientific NE-PER nuclear and cytoplasmic extraction kit (Life Technologies). Cytoplasmic and nuclear extracts were analyzed by Western blotting using anti-HIV-1 integrase (Abcam), anti-CypA (Abcam) and anti-histone H2 (Abcam) antibodies.
Fig 4 CPI-431-32 blocks HIV-1 reverse transcription and nuclear import. TZM cells were infected with DNase-treated NL4-3 HIV-1 together with DMSO or CPI-431-32 (2 μM). Target cell DNA was isolated at the indicated times and was used to detect early (A) and late HIV-1 reverse transcripts (B). TZM cells were infected with NL4.3 in the presence or absence of CPI-431-32 (2 μM). Six hours post-infection, cells were fractionated and cytoplasmic and nuclear extracts analyzed by Western blotting (C). […]
To further elucidate the effects of CypA-capsid disruption, we analyzed how CPI-431-32 affects the distribution of incoming HIV-1 cores within the first 6 hours of infection as determined by the presence of the HIV-1 integrase protein. TZM cells were infected with HIV-1 NL4.3 for 6 h in the absence or presence of CPI-431-32, then fractionated into cytosolic and nuclear extracts for quantitation of HIV-1 integrase by Western blotting. […]

[4] = system: HCV-mediated double-membrane vesicle (DMV) formation; assay: HCV NS3-NS5B-mediated double membrane vesicle (DMV) formation in T7/Huh7.5.1 cells, EM; type: cell-based, human; conditions: for DMV number: T7/Huh7.5.1 cells, pTMI (NS3-NS5B), DMSO control 365 +/- 18
Experimental: HCV-mediated DMV formation studies were conducted as we described recently using the pTM1(NS3-NS5B) plasmid and the T7/Huh7.5.1 cells developed by the Tai lab.
We then investigated the mechanism by which CPI-431-32 inhibits HCV replication. HCV is well known for its ability to reshape intracellular membranes to optimize RNA synthesis, especially by re-organizing the ER membrane close to the nucleus—the so-called membranous web (MW). […] We and others recently obtained evidence that the formation of DMVs highly depends on both CypA and HCV NS5A [60, 71, 72]. We thus asked whether CPI-431-32 inhibits HCV replication by preventing the creation of DMVs. To test this hypothesis, we took advantage of a T7 promoter driven JFH-1 NS3-NS5B DNA plasmid (pTM1(NS3-5B)) developed by the Tai lab that permits expression of NS3, NS4A, NS4B, NS5A and NS5B upon HCV polyprotein processing as well as viral RNA synthesis when transfected in T7 RNA polymerase expressing Huh7.5.1 cells (T7/Huh7.5.1 cells). Importantly, the expression of the HCV NS3-NS5B polyprotein suffices to create both the MV and DMVs independently of viral replication. All controls were presented previously. As we and others recently reported, NS3-5B expression mediates the formation of a significant number of DMVs in DMSO-treated cells (Fig 5).
Fig 5 CPI-431-32 blocks HCV-mediated double-membrane vesicle (DMV) formation. T7 polymerase expressing Huh7.5.1 cells were transfected in triplicates with JFH-1 NS3-NS5B plasmid in the presence of DMSO or increasing concentrations of CPI-431-32 and analyzed by EM as well as by Image J and ITEM software for DMVs quantification as described previously. Illustrating EM images of DMVs are presented with an amplification of 25,000x. Data are representative of two independent experiments. TEXT PRINTED IN THE PICTURE: DMSO: DMV number: 0 (Cells: T7/Huh7.5.1; HCV Plasmids: –); DMV number: 365 +/- 18 (Cells: T7/Huh7.5.1; HCV Plasmids: pTMI (NS3-NS5B)) | CPI-431-32: DMV number: 1 +/- 0 (2 μM; Cells: T7/Huh7.5.1; HCV Plasmids: pTMI (NS3-NS5B)); DMV number: 8 +/- 2 (0.5 μM; Cells: T7/Huh7.5.1; HCV Plasmids: pTMI (NS3-NS5B)); DMV number: 61 +/- 6 (0.125 μM; Cells: T7/Huh7.5.1; HCV Plasmids: pTMI (NS3-NS5B)); DMV number: 312 +/- 45 (0.03125 μM; Cells: T7/Huh7.5.1; HCV Plasmids: pTMI (NS3-NS5B))

| SMILES | Cellular toxicity (in words) [1] | Effect on HIV-1 replication (in words) [2] | Nuclear accumulation of HIV-1 integrase (in words) [3] | DMV number ([4]; 0.03125 μM) | DMV number ([4]; 0.125 μM) | DMV number ([4]; 0.5 μM) | DMV number ([4]; 2 μM) | NS3-NS5B-mediated formation of DMVs (in words) ([4]; compared to DMSO control) |
| --- | --- | --- | --- | --- | --- | --- | --- | --- |
| C/C=C/C[C@@H](C)[C@@H](O)[C@H]1C(=O)N[C@@H](CC)C(=O)N(C)[C@H](C)C(=O)N(CC)[C@@H](C(C)C)C(=O)N[C@@H](C(C)C)C(=O)N(C)[C@@H](CC(C)C)C(=O)N[C@@H](C)C(=O)N[C@H](C)C(=O)N(C)[C@@H](CC(C)C)C(=O)N(C)[C@@H](CC(C)C)C(=O)N(C)[C@@H](C(C)C)C(=O)N1C [ALV, Alisporivir] | lack of cellular toxicity | – | – | – | – | – | – | – |
| CC[C@@H]1NC(=O)[C@H]([C@H](O)[C@H](C)CCCCCCNC(C)=O)N(C)C(=O)[C@H](C(C)C)N(C)C(=O)[C@H](CC(C)C)N(C)C(=O)[C@H](CC(C)C)N(C)C(=O)[C@@H](C)NC(=O)[C@H](C)NC(=O)[C@H](CC(C)C)N(C)C(=O)[C@H](C(C)C)NC(=O)[C@H](CC(C)C)N(C)C(=O)[C@@H](C)N(C)C1=O [CPI-431-32] (cyclo(A[dA][NMeL][NMeL][NMeV][NMeThr(4R-Me,4-(CH2)6NHAc)][Abu][dNMeA][NMeL]V[NMeL])) | – | almost totally repressed HIV-1 replication | completely prevented the nuclear accumulation of integrase | 312 +/- 45 | 61 +/- 6 | 8 +/- 2 | 1 +/- 0 | profoundly decreased |
